Data on two compounds can be found in PMC4619705 (PLoS ONE, 2015).

Common to all, as to type: cell-based
Assay [1] deals with T1, γ2L homomeric receptors (Homo sapiens, UniProt P18507).
T1 construct: expressed in transfected cells; host or cells: Xenopus laevis oocytes injected with γ2L mRNA alone (high amounts)
As to the kind of experiment: Two-electrode voltage clamp of γ2L homomeric receptors expressed in Xenopus oocytes. The conditions noted are these: γ2L alone. From the text:
(§1) Human complementary DNA (cDNA) of GABAAR α2 subunit (vector: pCMV6-XL5) was purchased from OriGene Technologies (Rockville, MD, USA), and the human β3 (vector: pGEMHE) and γ2L (vector: pCDM8) subunits were generous gifts from Dr. Bjarke Ebert (H. Lundbeck A/S, Valby, Denmark) and Dr. Paul Whiting (Merck, Sharp and Dohme Research Laboratories, Harlow, Essex, UK) respectively. […] Plasmid vectors with the cDNA incorporated were linearised using appropriate restriction endonucleases (α2: SmaI; β3: NheI; γ2L: NotI). Capped RNA transcripts were synthesised from linearised plasmids using the mMessage mMachine T7 transcript kit from Ambion (Austin, TX, USA). Purified messenger RNA (mRNA) was dissolved in nuclease-free water (Ambion, Austin, TX, USA), and its quality was assessed using 1% agarose gel electrophoresis. The concentration of each subunit mRNA was measured using Nanodrop ND-100 UV-Vis spectrophotometer (Thermo Fisher Scientific, North Ryde, NSW, Australia).
(§2) Various combinations of α2, β3 and γ2L subunit mRNAs were mixed to different ratios as stated in the text, and diluted accordingly to a concentration of 5 ng/μL (unless otherwise stated). […] Injected oocytes were stored in ND96 storage solution supplemented with 50 μg/mL gentamycin and tetracycline at 18°C. Two-electrode voltage clamp recordings were performed on oocytes 2–4 days post-injection at room temperature (20–25°C) using a GeneClamp 500B amplifier (ADInstruments, Sydney, NSW, Australia) or a Warner OC-725C Oocyte Clamp (Warner Instrument Corp, Hamden, CT, USA). All experiments were conducted at a holding potential of –60 mV, and data were acquired with a PowerLab 2/25, and LabChart (version 5.0.2) software (ADInstruments, Sydney, NSW, Australia). The recording microelectrodes (0.2–1.1 MΩ) were generated from capillary glass (Harvard Apparatus, Holliston, MA, USA) using a single-stage glass microelectrode puller (Narishige, Tokyo, Japan), and were filled with 3 M KCl solution. The perfusion system was built using a series of polycarbonate, high-density polyethylene two-way stopcocks (Qosina, Edgewood, NY, USA), connected through tubing to the recording chamber (100 μL), where the oocyte was continuously perfused with ND96 recording solution (96 mM NaCl, 2 mM KCl, 1 mM MgCl2, 1.8 mM CaCl2, 5 mM HEPES hemisodium; pH 7.4) at an approximate rate of 5 mL/min.
(§3) Perfusates containing these chemicals were made up fresh before each application. The concentration-response curves of agonists were obtained by exposing oocytes to increasing concentrations of agonists until the currents peaked. […] All experiments were performed using at least two different batches of oocytes.
(In two-electrode clamp one electrode senses voltage and the other passes current.)

The target in assay [2] is T2, α2γ2L receptors (Homo sapiens, UniProt P18507+P47869).
T2 construct: expressed in transfected cells; host or cells: Xenopus laevis oocytes injected with α2 and γ2L mRNAs
The assay is described as follows: Two-electrode voltage clamp of binary α2γ2L receptors expressed in Xenopus oocytes.
Source text: as §1, §2, §3

Assay [3] deals with T3, homomeric α2 GABAARs (Homo sapiens, UniProt P47869).
T3 construct: expressed in transfected cells; host or cells: Xenopus laevis oocytes injected with α2 mRNA alone (28–35 ng/oocyte)
T3 sequence (P47869 29-451): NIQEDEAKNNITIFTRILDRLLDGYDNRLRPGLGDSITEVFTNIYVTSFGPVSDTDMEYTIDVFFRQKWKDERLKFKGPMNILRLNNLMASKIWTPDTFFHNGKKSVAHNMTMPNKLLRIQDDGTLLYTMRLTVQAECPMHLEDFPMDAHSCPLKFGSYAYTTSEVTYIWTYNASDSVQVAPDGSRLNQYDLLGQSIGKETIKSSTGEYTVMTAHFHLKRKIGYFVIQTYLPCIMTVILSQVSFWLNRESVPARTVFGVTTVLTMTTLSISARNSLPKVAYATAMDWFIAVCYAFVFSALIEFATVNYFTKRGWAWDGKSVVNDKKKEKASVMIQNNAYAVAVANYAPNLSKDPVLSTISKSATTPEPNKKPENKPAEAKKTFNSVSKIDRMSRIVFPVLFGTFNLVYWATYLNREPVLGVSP
As to the kind of experiment: Two-electrode voltage clamp of oocytes injected with α2 mRNA alone.
Source text: as §1
Various combinations of α2, β3 and γ2L subunit mRNAs were mixed to different ratios as stated in the text, and diluted accordingly to a concentration of 5 ng/μL (unless otherwise stated). […] Injected oocytes were stored in ND96 storage solution supplemented with 50 μg/mL gentamycin and tetracycline at 18°C. […]

For assay [4], the target named is T4, α2β3 GABAARs (Homo sapiens, UniProt P28472+P47869).
T4 construct: expressed in transfected cells; host or cells: Xenopus laevis oocytes injected with capped mRNA, α2:β3 20:1
T4 sequence (P47869 29-451): T3 sequence (P47869 29-451)
T4 sequence (P28472 26-473): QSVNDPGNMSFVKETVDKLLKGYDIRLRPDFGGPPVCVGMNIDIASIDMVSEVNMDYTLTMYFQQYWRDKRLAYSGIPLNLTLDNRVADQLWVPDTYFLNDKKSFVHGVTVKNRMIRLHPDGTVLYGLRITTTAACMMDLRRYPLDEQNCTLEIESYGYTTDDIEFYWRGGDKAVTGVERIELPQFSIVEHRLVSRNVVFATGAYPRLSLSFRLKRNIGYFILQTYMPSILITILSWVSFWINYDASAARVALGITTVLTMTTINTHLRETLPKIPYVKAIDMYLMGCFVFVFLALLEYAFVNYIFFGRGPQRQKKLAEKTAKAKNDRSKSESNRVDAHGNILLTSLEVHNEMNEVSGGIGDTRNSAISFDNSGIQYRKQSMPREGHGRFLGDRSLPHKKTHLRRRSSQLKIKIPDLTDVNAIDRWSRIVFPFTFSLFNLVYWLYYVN
As to the kind of experiment: Two-electrode voltage clamp of binary α2β3 GABAARs expressed in Xenopus oocytes.
Source text: as §1, §2, §3
Prism (version 5.04; GraphPad Software, La Jolla, CA, USA) was used for data analysis.
In all cases, we constrained the bottom to 0, and when fitting data to the biphasic model, the Hill slopes were constrained to 1. Statistical comparisons of results for different injection ratios of β3γ2L receptors were performed using ANOVA with Tukey’s post-hoc test. When comparing results from different injection ratios of β3γ2L receptors with α2β3γ2L receptors, the ANOVA Dunnett’s test was used. Pairwise comparisons were performed using Student’s t test. Statistical significance was attained at p < 0.05.

Entries after “also recorded” stand apart in the source; their conditions may differ.

T1 sequence (P18507 40-475): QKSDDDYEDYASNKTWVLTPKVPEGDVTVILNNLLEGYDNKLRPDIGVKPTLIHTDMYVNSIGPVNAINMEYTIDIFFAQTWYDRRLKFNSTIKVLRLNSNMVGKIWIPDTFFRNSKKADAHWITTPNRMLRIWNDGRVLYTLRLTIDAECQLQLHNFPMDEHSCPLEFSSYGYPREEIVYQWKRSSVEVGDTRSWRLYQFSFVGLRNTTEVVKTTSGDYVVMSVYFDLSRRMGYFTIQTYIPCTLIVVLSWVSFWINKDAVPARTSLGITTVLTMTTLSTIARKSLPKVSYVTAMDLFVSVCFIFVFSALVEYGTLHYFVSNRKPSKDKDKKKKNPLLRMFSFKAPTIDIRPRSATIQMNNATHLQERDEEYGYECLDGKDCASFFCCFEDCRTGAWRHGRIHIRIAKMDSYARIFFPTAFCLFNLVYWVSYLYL
T2 sequence (P18507 40-475, one chain of several): as the sequence (P18507 40-475) above

Consider `COc1ccccc1-c1cc(=O)c2cc(C)ccc2o1` [2’MeO6MF, 2’-methoxy-6-methylflavone], for which the “2’MeO6MF activity” value in assay [1] (100 μM) is recorded as “not sensitive; also recorded: not responsive; also recorded: No current”; in assay [2] (α2γ2L 1:1, 100 μM), “no function; also recorded: No current”; in assay [3] (100 μM), “did not detect function; also recorded: No current”; in assay [4] (α2β3 20:1, 100 μM), “lack of activity; also recorded: Insignificant activation”. Also, the “Elicited current, % of the 3 mM GABA responses” value in assay [4] (α2β3 20:1, 100 μM ligand) is 1.7 ± 0.35%. Further, in assay [4] (α2β3 20:1, GABA EC3–10 + 100 or 300 μM ligand, data not shown), the “Enhancement of GABA current (co-application)” value is “No enhancement”.
In the case of `NCCCC(=O)O` [GABA, γ-aminobutyric acid], the “Expression level (current response elicited by GABA)” value in assay [1] (20–35 ng mRNA/oocyte, 60 mM GABA, -60 mV) is recorded as “not sensitive; also recorded: not responsive; also recorded: No current”; in assay [2] (α2γ2L 1:1, 5 ng mRNA, 60 mM GABA, -60 mV) it was “no function; also recorded: No current”; in assay [3] (28–35 ng mRNA/oocyte, 60 mM GABA, -60 mV) it was “did not detect function; also recorded: No current”; in assay [4] (α2β3 20:1, 5 ng mRNA, 3 mM GABA, -60 mV), 1100 ± 220 nA.
